# Experimental data published in patent publication US20090062369A1, “USE OF SECRETORY PHOSPHOLIPASE A2 (SPLA2) INHIBITORS TO DECREASE SPLA2 LEVELS” (priority 2007, published 2009).
# System: serum sPLA2
# Assay: Effect of twice-a-day oral A-002 on serum sPLA2 levels in subjects with stable coronary artery disease (Example 6)
# Format: in vivo, human
# Experimental: The protocol for preparing standard curve, test, and quality control samples for use in the assay disclosed herein is set forth in Example 5. Samples are prepared according to this protocol, then loaded in duplicate onto a plate (Cayman catalog no. 485002 or equivalent) that has been pre-coated with a monoclonal sPLA2 antibody (“capture antibody”) that specifically binds sPLA2. In certain embodiments, the capture antibody may interact with a specific form of sPLA2, such as for example sPLA2 type IIA.
# sPLA2 acetylcholinesterase:Fab′ conjugate (AChE:Fab′) (“conjugate”) (Cayman catalog no. 485000 or equivalent) is reconstituted in EIA buffer (Cayman catalog no. 400060 or equivalent). Cayman EIA buffer is 1M phosphate, pH 7.0, 1% BSA, 4M NaCl, 10 mM EDTA, and 0.1% sodium azide. Reconstituted conjugate is added to each well of the plate. The conjugate binds a different sPLA2 epitope than the capture antibody, allowing the capture antibody and the conjugate to form a “sandwich” that is immobilized on the plate. Excess reagents are washed away, and the plate is covered and incubated overnight at 2-8° C.
# Prior to development, the wells are washed five to six times with wash buffer (Cayman catalog no. 400062 or equivalent). To develop the plate, Ellman's Reagent (Cayman catalog no. 400050 or equivalent) is reconstituted in water and added to each well according to manufacturer instructions. The reconstituted Ellman's Reagent must be used the same day it is prepared because it is unstable. Ellman's Reagent contains an AChE substrate. Specifically, Ellman's Reagent contains acetylthiocholine and 5,5′-dithio-bis-(2-nitrobenzoic acid). Hydrolysis of acetylthiocholine by acetylcholinesterase produces thiocholine, which reacts with 5,5′-dithio-bis-(2-nitrobenzoic acid) to produce 5-thio-2-nitrobenzoic acid. 5-thio-2-nitrobenzoic acid has a strong absorbance at 412 nm. The intensity of absorbance at this wavelength is directly proportional to the concentration of bound conjugate, which is in turn is directly proportional to the concentration of sPLA2 present (Absorbance a [AChE:Fab′ conjugate] α [sPLA2]). During the development step, the plate is shaken, preferably in the dark. In certain embodiments the development time for the assay is 0.5 to 3 hours, preferably 1 to 1.5 hours. At the end of the development period, the high sPLA2 standards should have greater yellow color development than the zero standards. Absorbance of each well is measured at 400-420 nm using a micro-well plate reader. In certain embodiments, absorbance is measured at about 405 nm.
# Absorbance readings for duplicate wells are averaged, and the relative standard deviation and % CV are calculated. Standard curve data are used to generate a four parameter curve, and quality control and test samples are measured against the appropriate standard curve (i.e., the standard curve with the same serum content). In order for a test to be considered valid, variation between duplicate wells should be no more than about 25%, and negative controls (blanks) for each standard curve should have a mean absorbance of less than about 0.3.
# The method disclosed herein for measuring sPLA2 levels in serum was utilized to determine the effect of administering certain sPLA2 inhibitors on sPLA2 levels in 84 human subjects. The subjects included 24 subjects with diabetes, 32 subjects with metabolic syndrome, and 75 subjects receiving statin treatment. Subjects were administered the sPLA2 inhibitor A-002, a prodrug form of A-001, twice a day at varying dosages from 50 to 500 mg. The structures of A-002and A-001 are set forth below. At two weeks and four weeks after the first administration, sPLA2 levels were measured and compared to pre-administration baseline levels.
# 84 subjects with stable coronary artery disease were randomized to receive placebo or A-002 via oral administration twice a day over a four week administration period. […]
# [1] = 50 mg, diabetes subgroup of ITT population
# [2] = 50 mg, non-diabetes subgroup of ITT population
# [3] = 50 mg, statin subgroup of ITT population
# [4] = 100 mg, diabetes subgroup of ITT population
# [5] = 100 mg, non-diabetes subgroup of ITT population
# [6] = 100 mg, statin subgroup of ITT population
compound,measurement,setting,value
"CCc1c(C(=O)C(N)=O)c2c(OCC(=O)OC)cccc2n1Cc1ccccc1 [A-002, [[3-(2-Amino-1,2-dioxoethyl)-2-ethyl-1-(phenylmethyl)-1H-indol-4-yl]oxy]acetic acid methyl ester]","sPLA2 Change from baseline at week 2, Mean","50 mg, ITT population",-2.74 ng/mL
same,"sPLA2 Change from baseline at week 2, Median","50 mg, ITT population",-2.60 ng/mL
same,"sPLA2 Change from baseline at week 2, Range","50 mg, ITT population",-5.30 to -0.60 ng/mL
same,"sPLA2 Change from baseline at week 4, Mean","50 mg, ITT population",-2.50 ng/mL
same,"sPLA2 Change from baseline at week 4, Median","50 mg, ITT population",-2.15 ng/mL
same,"sPLA2 Change from baseline at week 4, Range","50 mg, ITT population",-6.40 to -0.60 ng/mL
same,"sPLA2 level, Baseline, Mean","50 mg, ITT population",3.24 ng/mL
same,"sPLA2 level, Baseline, Median","50 mg, ITT population",2.65 ng/mL
same,"sPLA2 level, Baseline, Range","50 mg, ITT population",0.80 to 8.80 ng/mL
same,"sPLA2 level, Week 2, Mean","50 mg, ITT population",0.89 ng/mL
same,"sPLA2 level, Week 2, Median","50 mg, ITT population",0.45 ng/mL
same,"sPLA2 level, Week 2, Range","50 mg, ITT population",0.20 to 4.00 ng/mL
same,"sPLA2 level, Week 4, Mean","50 mg, ITT population",0.85 ng/mL
same,"sPLA2 level, Week 4, Median","50 mg, ITT population",0.70 ng/mL
same,"sPLA2 level, Week 4, Range","50 mg, ITT population",0.10 to 2.40 ng/mL
same,"sPLA2 Change from baseline at week 2, Mean",[1],-2.05 ng/mL
same,"sPLA2 Change from baseline at week 2, Median",[1],-2.45 ng/mL
same,"sPLA2 Change from baseline at week 2, Range",[1],-2.70 to -0.60 ng/mL
same,"sPLA2 Change from baseline at week 4, Mean",[1],-1.76 ng/mL
same,"sPLA2 Change from baseline at week 4, Median",[1],-1.50 ng/mL
same,"sPLA2 Change from baseline at week 4, Range",[1],-3.20 to -0.60 ng/mL
same,"sPLA2 level, Baseline, Mean",[1],2.45 ng/mL
same,"sPLA2 level, Baseline, Median",[1],2.65 ng/mL
same,"sPLA2 level, Baseline, Range",[1],0.80 to 3.80 ng/mL
same,"sPLA2 level, Week 2, Mean",[1],0.55 ng/mL
same,"sPLA2 level, Week 2, Median",[1],0.45 ng/mL
same,"sPLA2 level, Week 2, Range",[1],0.20 to 1.10 ng/mL
same,"sPLA2 level, Week 4, Mean",[1],0.66 ng/mL
same,"sPLA2 level, Week 4, Median",[1],0.60 ng/mL
same,"sPLA2 level, Week 4, Range",[1],0.20 to 1.20 ng/mL
same,"sPLA2 Change from baseline at week 2, Mean",[2],-3.09 ng/mL
same,"sPLA2 Change from baseline at week 2, Median",[2],-3.05 ng/mL
same,"sPLA2 Change from baseline at week 2, Range",[2],-5.30 to -0.70 ng/mL
same,"sPLA2 Change from baseline at week 4, Mean",[2],-3.03 ng/mL
same,"sPLA2 Change from baseline at week 4, Median",[2],-2.80 ng/mL
same,"sPLA2 Change from baseline at week 4, Range",[2],-6.40 to -0.80 ng/mL
same,"sPLA2 level, Baseline, Mean",[2],3.72 ng/mL
same,"sPLA2 level, Baseline, Median",[2],3.20 ng/mL
same,"sPLA2 level, Baseline, Range",[2],1.30 to 8.80 ng/mL
same,"sPLA2 level, Week 2, Mean",[2],1.06 ng/mL
same,"sPLA2 level, Week 2, Median",[2],0.06 ng/mL
same,"sPLA2 level, Week 2, Range",[2],0.20 to 4.00 ng/mL
same,"sPLA2 level, Week 4, Mean",[2],0.96 ng/mL
same,"sPLA2 level, Week 4, Median",[2],0.75 ng/mL
same,"sPLA2 level, Week 4, Range",[2],0.10 to 2.40 ng/mL
same,"sPLA2 Change from baseline at week 2, Mean",[3],-2.74 ng/mL
same,"sPLA2 Change from baseline at week 2, Median",[3],-2.60 ng/mL
same,"sPLA2 Change from baseline at week 2, Range",[3],-5.30 to -0.60 ng/mL
same,"sPLA2 Change from baseline at week 4, Mean",[3],-2.50 ng/mL
same,"sPLA2 Change from baseline at week 4, Median",[3],-2.15 ng/mL
same,"sPLA2 Change from baseline at week 4, Range",[3],-6.40 to -0.60 ng/mL
same,"sPLA2 level, Baseline, Mean",[3],3.34 ng/mL
same,"sPLA2 level, Baseline, Median",[3],2.70 ng/mL
same,"sPLA2 level, Baseline, Range",[3],0.80 to 8.80 ng/mL
same,"sPLA2 level, Week 2, Mean",[3],0.89 ng/mL
same,"sPLA2 level, Week 2, Median",[3],0.45 ng/mL
same,"sPLA2 level, Week 2, Range",[3],0.20 to 4.00 ng/mL
same,"sPLA2 level, Week 4, Mean",[3],0.85 ng/mL
same,"sPLA2 level, Week 4, Median",[3],0.70 ng/mL
same,"sPLA2 level, Week 4, Range",[3],0.10 to 2.40 ng/mL
same,"sPLA2 Change from baseline at week 2, Mean","100 mg, ITT population",-1.81 ng/mL
same,"sPLA2 Change from baseline at week 2, Median","100 mg, ITT population",-1.85 ng/mL
same,"sPLA2 Change from baseline at week 2, Range","100 mg, ITT population",−3.70 to +2.85 ng/ml
same,"sPLA2 Change from baseline at week 4, Mean","100 mg, ITT population",-2.55 ng/mL
same,"sPLA2 Change from baseline at week 4, Median","100 mg, ITT population",-2.50 ng/mL
same,"sPLA2 Change from baseline at week 4, Range","100 mg, ITT population",-5.70 to 0.00 ng/mL
same,"sPLA2 level, Baseline, Mean","100 mg, ITT population",2.86 ng/mL
same,"sPLA2 level, Baseline, Median","100 mg, ITT population",2.95 ng/mL
same,"sPLA2 level, Baseline, Range","100 mg, ITT population",0.05 to 6.00 ng/mL
same,"sPLA2 level, Week 2, Mean","100 mg, ITT population",0.68 ng/mL
same,"sPLA2 level, Week 2, Median","100 mg, ITT population",0.45 ng/mL
same,"sPLA2 level, Week 2, Range","100 mg, ITT population",0.05 to 2.90 ng/mL
same,"sPLA2 level, Week 4, Mean","100 mg, ITT population",0.49 ng/mL
same,"sPLA2 level, Week 4, Median","100 mg, ITT population",0.50 ng/mL
same,"sPLA2 level, Week 4, Range","100 mg, ITT population",0.05 to 1.10 ng/mL
same,"sPLA2 Change from baseline at week 2, Mean",[4],-1.11 ng/mL
same,"sPLA2 Change from baseline at week 2, Median",[4],-1.80 ng/mL
same,"sPLA2 Change from baseline at week 2, Range",[4],−3.00 to +2.85 ng/ml
same,"sPLA2 Change from baseline at week 4, Mean",[4],-2.30 ng/mL
same,"sPLA2 Change from baseline at week 4, Median",[4],-1.80 ng/mL
same,"sPLA2 Change from baseline at week 4, Range",[4],-5.70 to 0.00 ng/mL
same,"sPLA2 level, Baseline, Mean",[4],2.78 ng/mL
same,"sPLA2 level, Baseline, Median",[4],2.50 ng/mL
same,"sPLA2 level, Baseline, Range",[4],0.05 to 6.00 ng/mL
same,"sPLA2 level, Week 2, Mean",[4],1.02 ng/mL
same,"sPLA2 level, Week 2, Median",[4],0.50 ng/mL
same,"sPLA2 level, Week 2, Range",[4],0.40 to 2.90 ng/mL
same,"sPLA2 level, Week 4, Mean",[4],0.48 ng/mL
same,"sPLA2 level, Week 4, Median",[4],0.40 ng/mL
same,"sPLA2 level, Week 4, Range",[4],0.05 to 1.10 ng/mL
same,"sPLA2 Change from baseline at week 2, Mean",[5],-2.21 ng/mL
same,"sPLA2 Change from baseline at week 2, Median",[5],-2.40 ng/mL
same,"sPLA2 Change from baseline at week 2, Range",[5],-3.70 to -0.40 ng/mL
same,"sPLA2 Change from baseline at week 4, Mean",[5],-2.76 ng/mL
same,"sPLA2 Change from baseline at week 4, Median",[5],-2.60 ng/mL
same,"sPLA2 Change from baseline at week 4, Range",[5],-4.40 to -0.90 ng/mL
same,"sPLA2 level, Baseline, Mean",[5],2.91 ng/mL
same,"sPLA2 level, Baseline, Median",[5],3.20 ng/mL
same,"sPLA2 level, Baseline, Range",[5],1.00 to 4.90 ng/mL
same,"sPLA2 level, Week 2, Mean",[5],0.48 ng/mL
same,"sPLA2 level, Week 2, Median",[5],0.30 ng/mL
same,"sPLA2 level, Week 2, Range",[5],0.05 to 1.20 ng/mL
same,"sPLA2 level, Week 4, Mean",[5],0.51 ng/mL
same,"sPLA2 level, Week 4, Median",[5],0.60 ng/mL
same,"sPLA2 level, Week 4, Range",[5],0.05 to 1.00 ng/mL
same,"sPLA2 Change from baseline at week 2, Mean",[6],-1.81 ng/mL
same,"sPLA2 Change from baseline at week 2, Median",[6],-1.80 ng/mL
same,"sPLA2 Change from baseline at week 2, Range",[6],−3.70 to +2.85 ng/ml
same,"sPLA2 Change from baseline at week 4, Mean",[6],-2.46 ng/mL
same,"sPLA2 Change from baseline at week 4, Median",[6],-2.50 ng/mL
